No end group written: not given here.
Assays:
Format in all cases: cell-based
[1] = test system: RNAIII transcription of S. aureus RN8463
[2] = test system: agr transcription of S. aureus RN6390B
[3] = test system: RNAIII transcription of S. aureus RN6607
[4] = test system: RNAIII transcription of various S. aureus strains

| Substance | Effect of purified peptide on RNAIII transcription [1] | Effect of purified peptide on RNAIII transcription [2] | Effect of purified peptide on RNAIII transcription [3] | S. aureus strains tested in which the agr response is inhibited [4] |
| --- | --- | --- | --- | --- |
| GVNACSSLF [peptide from RN6607, peptide purified from supernatant of strain with cloned agrBD genes of RN6607] | inhibitor effect | inhibitor effect | activator effect |  |
| YSTCDFIM [activator peptide] | inhibitor effect | activator effect | inhibitor effect |  |
| YINCDFLL [peptide from RN8463, peptide purified from supernatant of strain with cloned agrBD genes of RN8463] | activator effect | inhibitor effect | inhibitor effect |  |
| DICNAYF [S. lugdunensis pheromone] |  |  |  | 5 of 6 |
